The subject of the assay is H929 myeloma cells. It is filed as cell-based. The settings on record: for change in activity relative to the inverso peptide L-cINTEGRIN INTERACTION INHIBITORS: alanine scan and analogs, Table 4 legend; for activity relative to linear parent peptide (linear D-HYD1): in words. The protocol:
H929 cells were treated for 24 hours with varying concentrations of peptide. Cell death was measured by Topro-3 staining and FACS analysis. The IC50 values were obtained from linear regression analysis and an average value was obtained from 3 independent experiments.
Table 4 legend: Structure activity relationship in H929 myeloma cells of cyclic INTEGRIN INTERACTION INHIBITORS derivatives. The minimal bioactive core sequence of INTEGRIN INTERACTION INHIBITORS WSVVM (SEQ ID NO:85) was cyclized using 2 novel reduced amide bond beta turn promoters and KLKLK (SEQ ID NO:27) as the non-recognition sequence. H929 cells were treated with varying concentrations of the indicated peptide for 24 h. Cell viability was determined using Topro-3 staining and FACS analysis after drug treatment. IC50 values were generated from linear regressions generated from the dose response curves (n=mean of 3 independent experiments).
Using combinatorial peptide libraries and a functional binding assay, several peptides have been identified that inhibited α2β1 and α6β1 integrin mediated adhesion of prostate cancer cells to fibronectin, laminin and collagen IV.^1 They identified an all D-amino acid containing peptide referred as HYD1 ([…]) (SEQ ID NO:278) that blocks binding of epithelial prostate carcinoma cells to extracellular matrix components.^2,3 Hazlehurst and co-workers have truncated the N- and C-termini and alanine scan studies identified MVISW (SEQ ID NO:279) as the likely core region of linear D-HYD1 required for biological activity. […] The pentapeptide (KLKLK) (SEQ ID NO:27) was selected as the non-recognition strand to improve the solubility. N- to C-terminus cyclization of linear peptides was done to restrict the number of conformations available to the linear peptide which increases the affinity of the cyclized peptide for its target when the constraint stabilizes the bound conformation of the peptide. We synthesized cyclic D-HYD1 using a novel methylsulfonamide aminoethyl glycine linker T1 that connects two anti-parallel strands. […] The inverso- (peptide 2, Table 4) and partially modified retro-inverso (PMRI) (peptide 10) pentapeptide sequences of the recognition strand of cyclic III (Integrin Interaction Inhibitors also known as cyclic L-HYD1) peptide analogs were subsequently investigated for their potential to block beta integrin mediated cell adhesion. The retro-inverso design of biologically active peptides is a well-known strategy to design all D-amino acid peptides from potentially bioactive all L-peptide sequences with increased stability^4-7.
A colony forming assay was used to compare induced cell death in H929 multiple myeloma cells. Cells were treated with integrin interaction inhibitors, shown in FIG. 5 and Table 4, and cell death was measured following 24 hour peptide treatment by TOPRO-3 staining and FACS analysis.

The mark [1] stands for this setting: cyclic III peptide analogs, Table 8, H929 cells, TOPRO 3, read-out: IC50.

Read-outs that look alike come from different tables or passages of the source. Starred links: 1 amine or outer side, 2 acyl side, 3 side chain; linkers in the order of their positions; H or OH if unused. Positions of bridges follow the written chain, without caps; N, C: chain ends. Non-standard residues stand in square brackets, D forms with d. Residues, ends and D or L forms follow the SMILES beside them. *: point of attachment. T1 = NH2CH2CH2N(SO2Me)CH2COOH, methylsulfonamido aminoethyl glycine linker; dProlinol(O-CH2CO) = O=C(COC[C@H]1CCCN1[*:1])[*:2]; N(2-Aminoethyl)Gly = O=C(CN(CCN[*:3])[*:1])[*:2]; Nle = CCCC[C@H](N)C(=O)O; Ms = CS(=O)(=O)*

In the case of `CSCC[C@@H]1NC(=O)CN(S(C)(=O)=O)CCNC(=O)[C@H](CCCCN)NC(=O)[C@H](CC(C)C)NC(=O)[C@H](CCCCN)NC(=O)[C@H](CC(C)C)NC(=O)[C@H](CCCCN)NC(=O)CN(S(C)(=O)=O)CCNC(=O)[C@H](Cc2c[nH]c3ccccc23)NC(=O)[C@H](C)NC(=O)[C@H](C(C)C)NC(=O)[C@H](C(C)C)NC1=O` [III 3], the “change in activity relative to the inverso peptide L-cINTEGRIN INTERACTION INHIBITORS” value (H929 cells) was “increase in activity”. What is called IC50 is the point on the concentration scale where inhibition reaches its midpoint. Regarding `CCCC[C@@H]1NC(=O)CN(S(C)(=O)=O)CCNC(=O)[C@H](CCCCN)NC(=O)[C@H](CC(C)C)NC(=O)[C@H](CCCCN)NC(=O)[C@H](CC(C)C)NC(=O)[C@H](CCCCN)NC(=O)COC[C@H]2CCCN2C(=O)[C@H](Cc2c[nH]c3ccccc23)NC(=O)[C@H](C)NC(=O)[C@H]([C@@H](C)CC)NC(=O)[C@H](C(C)C)NC1=O` [Peptide 25, KLKLKT1N*VIAWT3] (Ms-[N(2-Aminoethyl)Gly][Nle]VIAW[dProlinol(O-CH2CO)]KLKLK; lactam 1-C), under setting [1], the IC50 amounted to 10 µM. Consider `CCCC[C@@H]1NC(=O)[C@H](C(C)C)NC(=O)[C@H](C(C)C)NC(=O)[C@H](C)NC(=O)[C@H](C)NC(=O)CN(S(C)(=O)=O)CCNC(=O)[C@H](CCCCN)NC(=O)[C@H](CC(C)C)NC(=O)[C@H](CCCCN)NC(=O)[C@H](CC(C)C)NC(=O)[C@H](CCCCN)NC(=O)CN(S(C)(=O)=O)CCNC1=O` [Peptide 15, KLKLKT1AAVVN*T1], for which inhibition (24 h) was half-maximal at 3 µM (IC50). Also, the “bioactivity of cyclic III peptide analogs, in words” value (SAR discussion of Table 8) is on record as “unexpected improvement in bioactivity”. With `CCCC[C@@H]1NC(=O)CN(S(C)(=O)=O)CCNC(=O)[C@H](CCCCN)NC(=O)[C@H](CCC(N)=O)NC(=O)[C@H](CCCCN)NC(=O)[C@H](CC(C)C)NC(=O)[C@H](CCCCN)NC(=O)COC[C@H]2CCCN2C(=O)[C@H](Cc2c[nH]c3ccccc23)NC(=O)[C@H](C)NC(=O)[C@H](C(C)C)NC(=O)[C@H](C(C)C)NC1=O` [Peptide 21, KLKQKT1N*VVAWT3] (Ms-[N(2-Aminoethyl)Gly][Nle]VVAW[dProlinol(O-CH2CO)]KLKQK; lactam 1-C), the half-maximal inhibitory concentration (IC50) (24 h) worked out at 25 µM. Consider “L-HYD1: the inverso (L-HYD1) cyclic compound (cyclo(KLKLKMVVSW)-T1; not fully specified (residue 5))”, for which the “potency relative to cyclic D-HYD1” value (H929 cells) was 2 fold. On to `CCCC[C@@H]1NC(=O)CN(S(C)(=O)=O)CCNC(=O)[C@H](CCCCN)NC(=O)[C@H](CC(C)C)NC(=O)[C@H](CCCCN)NC(=O)[C@H](CC(C)C)NC(=O)[C@H](CCCCN)NC(=O)CN(S(C)(=O)=O)CCNC(=O)[C@H](Cc2c[nH]c3ccccc23)NC(=O)[C@H](CO)NC(=O)[C@H](C(C)C)NC(=O)[C@H](C(C)C)NC1=O` [III 7], for which the “change in activity relative to the inverso peptide L-cINTEGRIN INTERACTION INHIBITORS” value (H929 cells) is listed as “increase in activity”. On to `CSCC[C@@H]1NC(=O)CN(S(C)(=O)=O)CCNC(=O)[C@H](CCCCN)NC(=O)[C@H](CC(C)C)NC(=O)[C@H](CCCCN)NC(=O)[C@H](CC(C)C)NC(=O)[C@H](CCCCN)NC(=O)CN(S(C)(=O)=O)CCNC(=O)[C@H](Cc2c[nH]c3ccccc23)NC(=O)[C@H](CO)NC(=O)[C@H](C(C)C)NC(=O)[C@H](C(C)C)NC1=O` [III 1], for which the “fold more potent than the parent linear HYD1 peptide” value (H929 cells) is 2.5 fold. `CCCC[C@@H]1NC(=O)[C@H](C(C)C)NC(=O)[C@H](C)NC(=O)[C@H](C)NC(=O)[C@H](Cc2c[nH]c3ccccc23)NC(=O)CN(S(C)(=O)=O)CCNC(=O)[C@H](CCCCN)NC(=O)[C@H](CC(C)C)NC(=O)[C@H](CCCCN)NC(=O)[C@H](CC(C)C)NC(=O)[C@H](CCCCN)NC(=O)CN(S(C)(=O)=O)CCNC1=O` [Peptide 14, KLKLKT1WAAVN*T1] returned a half-inhibitory concentration (IC50) (24 h) of 41 µM. Turning to `CSCC[C@@H]1NC(=O)CN(S(C)(=O)=O)CCNC(=O)[C@H](CCCCN)NC(=O)[C@H](CC(C)C)NC(=O)[C@H](CCCCN)NC(=O)[C@H](CC(C)C)NC(=O)[C@H](CCCCN)NC(=O)CN(S(C)(=O)=O)CCNC(=O)[C@H](Cc2c[nH]c3ccccc23)NC(=O)[C@H](CO)NC(=O)[C@H](C)NC(=O)[C@H](C(C)C)NC1=O` [III 4], the “change in activity relative to the inverso peptide L-cINTEGRIN INTERACTION INHIBITORS” value (H929 cells) is listed as “decrease in activity”. In the case of `CCCC[C@@H]1NC(=O)CN(S(C)(=O)=O)CCNC(=O)[C@H](CCCCN)NC(=O)[C@H](CC(C)C)NC(=O)[C@H](CCC(N)=O)NC(=O)[C@H](CC(C)C)NC(=O)[C@H](CCCCN)NC(=O)COC[C@H]2CCCN2C(=O)[C@H](Cc2c[nH]c3ccccc23)NC(=O)[C@H](C)NC(=O)[C@H](C(C)C)NC(=O)[C@H](C(C)C)NC1=O` [Peptide 17, KLKQKT1N*VVAWT3] (Ms-[N(2-Aminoethyl)Gly][Nle]VVAW[dProlinol(O-CH2CO)]KLQLK; lactam 1-C), the IC50 (24 h) amounted to 13 µM.

For the molecule `CCCC[C@@H]1NC(=O)[C@H](C)NC(=O)[C@H](C(C)C)NC(=O)[C@H](C)NC(=O)[C@H](Cc2c[nH]c3ccccc23)NC(=O)CN(S(C)(=O)=O)CCNC(=O)[C@H](CCCCN)NC(=O)[C@H](CC(C)C)NC(=O)[C@H](CCCCN)NC(=O)[C@H](CC(C)C)NC(=O)[C@H](CCCCN)NC(=O)CN(S(C)(=O)=O)CCNC1=O` [Peptide 13, KLKLKT1WAVAN*T1], under setting [1], the half-maximal inhibitory concentration (IC50) turned out to be 26 µM. Still for that read-out and setting: with `CCCC[C@@H]1NC(=O)CN(S(C)(=O)=O)CCNC(=O)[C@H](CCCCN)NC(=O)[C@H](CC(C)C)NC(=O)[C@H](CCCCN)NC(=O)[C@H](CC(C)C)NC(=O)[C@H](CCCCN)NC(=O)COC[C@H]2CCCN2C(=O)[C@H](Cc2c[nH]c3ccccc23)NC(=O)[C@H](C)NC(=O)[C@H](Cc2ccccc2)NC(=O)[C@H](C(C)C)NC1=O` [Peptide 26, KLKLKT1N*VFAWT3] (Ms-[N(2-Aminoethyl)Gly][Nle]VFAW[dProlinol(O-CH2CO)]KLKLK; lactam 1-C) the figure was 9 µM.

Consider `CSCC[C@H]1NC(=O)CN(S(C)(=O)=O)CCNC(=O)[C@@H](CCCCN)NC(=O)[C@@H](CC(C)C)NC(=O)[C@@H](CCCCN)NC(=O)[C@@H](CC(C)C)NC(=O)[C@@H](CCCCN)NC(=O)CN(S(C)(=O)=O)CCNC(=O)[C@@H](Cc2c[nH]c3ccccc23)NC(=O)[C@@H](CO)NC(=O)[C@@H](C(C)C)NC(=O)[C@@H](C(C)C)NC1=O` [cyclic D-HYD1], for which the “activity relative to linear parent peptide (linear D-HYD1)” value is “twice as active” (H929 cells) and “about twice as active” (H929 cells, listed as c-D-HYD1). Consider `CC(C)C[C@@H]1NC(=O)[C@H](CCCCN)NC(=O)CN(S(C)(=O)=O)CCNC(=O)[C@H](C)NC(=O)[C@H](C(C)C)NC(=O)[C@H](C(C)C)NC(=O)[C@H](C)NC(=O)[C@H](Cc2c[nH]c3ccccc23)NC(=O)CN(S(C)(=O)=O)CCNC(=O)[C@H](CCCCN)NC(=O)[C@H](CC(C)C)NC(=O)[C@H](CCCCN)NC1=O` [Peptide 12, KLKLKT1WAVVAT1], for which the IC50 (24 h) came to 69 µM. With `CCCC[C@@H]1NC(=O)CN(S(C)(=O)=O)CCNC(=O)[C@H](CCC(N)=O)NC(=O)[C@H](CC(C)C)NC(=O)[C@H](CCCCN)NC(=O)[C@H](CC(C)C)NC(=O)[C@H](CCCCN)NC(=O)COC[C@H]2CCCN2C(=O)[C@H](Cc2c[nH]c3ccccc23)NC(=O)[C@H](C)NC(=O)[C@H](C(C)C)NC(=O)[C@H](C(C)C)NC1=O` [Peptide 19, KLKLQT1N*VVAWT3] (Ms-[N(2-Aminoethyl)Gly][Nle]VVAW[dProlinol(O-CH2CO)]KLKLQ; lactam 1-C), it took 19 µM to reach half-maximal inhibition (24 h) (IC50). `CCCC[C@@H]1NC(=O)CN(S(C)(=O)=O)CCNC(=O)[C@H](CCCCN)NC(=O)[C@H](CC(C)C)NC(=O)[C@H](CCCCN)NC(=O)[C@H](CC(C)C)NC(=O)[C@H](CCCCN)NC(=O)COC[C@H]2CCCN2C(=O)[C@H](Cc2c[nH]c3ccccc23)NC(=O)[C@H](C)NC(=O)[C@H](CC(C)C)NC(=O)[C@H](C(C)C)NC1=O` [Peptide 24, KLKLKT1N*VLAWT3] (Ms-[N(2-Aminoethyl)Gly][Nle]VLAW[dProlinol(O-CH2CO)]KLKLK; lactam 1-C): the IC50 under setting [1] came to 10 µM. `CCCC[C@@H]1NC(=O)CN(S(C)(=O)=O)CCNC(=O)[C@H](CCCCN)NC(=O)[C@H](CC(C)C)NC(=O)[C@H](CCCCN)NC(=O)[C@H](CC(C)C)NC(=O)[C@H](CCCCN)NC(=O)COC[C@H]2CCCN2C(=O)[C@H](Cc2c[nH]c3ccccc23)NC(=O)[C@H](C)NC(=O)[C@H](C(C)C)NC(=O)[C@H](C(C)C)NC1=O` [Peptide 16, KLKLKT1N*VVAWT3] (Ms-[N(2-Aminoethyl)Gly][Nle]VVAW[dProlinol(O-CH2CO)]KLKLK; lactam 1-C): for the setting “H929 cells, 24 hours, Topro-3 and FACS, read-out: IC50 value in H929 cells”, the IC50 was 1 µM.
